Assay [1] concerns Tau phosphorylation at Ser396 (pSer396). Nature of the assay: Tau phosphorylation at Ser396 (pSer396) in SH-SY5Y cells, ELISA / western blot.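 Note: decrease in pSer396 Tau measured in lysates of treated cells by colorimetric ELISA or chemiluminescent western blot, same pSer396 antibody for both.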 It counts as cell-based, human. Conditions: Homo sapiens. On the technique in general: ELISA stands for enzyme-linked immunosorbent assay.
Description: Two days before treatment, cells were seeded onto 96 well plates at 5×10^4 cells/well.
The above synthesized compounds were screened using the cell assay procedure to assess decrease Tau phosphorylation at Ser396 (pSer396) described below.
Cells were lysed with RIPA buffer complemented with phosphatase and protease inhibitors then lysates were spun down at 12,000 g for 10 min to remove any cellular debris.
Another assay concerns the target DYRK1A kinase (Homo sapiens, UniProt Q13627). The experiment in a line: DYRK1A kinase activity (Ser/Thr 18 peptide Z-lyte FRET assay).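 Note: kinase activity read as coumarin/fluorescein emission ratio after development step, with unphosphorylated and phosphorylated peptide forms setting 0% and 100% controls, values from dose-response curves.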 It counts as biochemical. Particulars: recombinant DYRK1A, 30 μM ATP, one hour at room temperature.
For another assay, the target named is GSK3β kinase (Homo sapiens, UniProt P49841). The experiment in a line: GSK3β kinase activity (Ser/Thr 09 peptide Z-lyte FRET assay). It counts as biochemical.
In assay [2] the test system is SW480 colon carcinoma cells. Nature of the assay: Cell viability assay (CellTiter-Glo). Conditions: Homo sapiens; for EC50: SW480, 96 h; for inhibition at 10 µM: SW480, read-out: percent inhibition at 10 μM. On the technique in general: ATP-based viability assays read luminescence as a measure of living cells.
Assay [3] deals with Wnt-responsive Sp5-Luc reporter in SW480 colon carcinoma cells. Nature of the assay: Screening assay for Wnt activity (Sp5-Luc reporter gene assay). Particulars: Homo sapiens; for EC50: SW480; for inhibition at 10 µM: SW480, read-out: percent inhibition at 10 μM.
Description: The screening assay for Wnt activity is described as follows.
SW480 colon carcinoma cells were transduced with a lentiviral vector expressing luciferase with a human Sp5 promoter consisting of a sequence of eight TCF/LEF binding sites. […] These stably transduced SW480 cells were expanded in cell culture and used for all further screening activities. Each compound was dissolved in DMSO as a 10 mM stock and used to prepare compound source plates. Serial dilution (1:3, 10-point dose-response curves starting from 10 μM) and compound transfer was performed using the ECHO 550 (Labcyte, Sunnyvale, Calif.) into 384-well white solid bottom assay plates (Greiner Bio-One) with appropriate DMSO backfill for a final DMSO concentration of 0.1%. […] Following incubation, 15 μl of BriteLite Plus luminescence reagent (Perkin Elmer) was added to each well of the 384-well assay plates. The plates were placed on an orbital shaker for 2 min and then luminescence was quantified using the Envision (Perkin Elmer) plate reader.
In the next assay the test system is IL-6. Nature of the assay: IL-6 inhibition in LPS-stimulated human peripheral blood mononuclear cells (HTRF). Conditions: Homo sapiens, PBMC; for EC50: 22 h; for inhibition at 10 µM: read-out: percentage in parentheses after EC50 >10.
Assay [4] has as its system α-smooth muscle actin (aSMA) positive LL29 cells. Nature of the assay: Inhibition of the fibrotic process: αSMA staining in TGF-β1 treated LL29 fibroblasts from IPF patients. Particulars: Homo sapiens, Fibroblast; for EC50: 96 h; for inhibition at 10 µM: read-out: percentage in parentheses after EC50 >10.
Assay [5] has as its system secreted cytokines TNFα, IL-6 and KC-GRO. The experiment in a line: Secreted cytokines in Lipopolysaccharide-stimulated BV-2 cells (Table 9 does not say which cytokine). The format is cell-based, mouse. Conditions: Mus musculus, BV-2, 5 h.
[6] abbreviates: recombinant kinase, 46 μM ATP, one hour at room temperature, read-out: EC50.
[7] abbreviates: SH-SY5Y cells, overnight (16-18 h), read-out: pSer396 Tau EC50.

Where two headings read alike, the source gives them in different places.

Chain of GSK3β kinase (P49841 whole entry): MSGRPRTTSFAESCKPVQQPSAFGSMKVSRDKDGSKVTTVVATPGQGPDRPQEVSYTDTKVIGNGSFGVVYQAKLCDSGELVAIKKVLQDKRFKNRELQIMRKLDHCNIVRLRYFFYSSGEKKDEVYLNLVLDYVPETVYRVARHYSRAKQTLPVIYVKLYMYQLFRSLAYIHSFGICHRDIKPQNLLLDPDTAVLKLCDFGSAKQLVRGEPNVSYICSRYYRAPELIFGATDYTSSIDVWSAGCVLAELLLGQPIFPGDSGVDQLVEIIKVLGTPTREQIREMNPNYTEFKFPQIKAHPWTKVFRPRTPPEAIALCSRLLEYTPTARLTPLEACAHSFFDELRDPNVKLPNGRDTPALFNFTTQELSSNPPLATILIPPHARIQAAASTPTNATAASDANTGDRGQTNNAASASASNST
Description for GSK3β kinase: Each compound is dissolved in DMSO as a 10 mM stock and used to prepare compound source plates. Serial dilution (1:3, 11-point dose-response curves from 10 μM to 0.0003 μM) and compound transfer was performed using the ECHO 550 (Labcyte, Sunnyvale, Calif.) into 1536-well black-walled round bottom plates (Corning).
This is a non-radioactive assay using fluorescence resonance energy transfer (FRET) between coumarin and fluorescein to detect kinase activity which is represented as ratio of coumarin emission/fluorescein emission.
The mixture is allowed to incubate with the representative compounds for one hour at room temperature. All reactions were performed in duplicate. Unphosphorylated (“0% Control”) and phosphorylated (“100% control”) forms of Ser/Thr 18 serve as control reactions.
After incubation, diluted Development Buffer is added to the reaction and allowed to further incubate for one hour at room temperature.
Dose-response curves are generated and inhibitory concentration (IC50) values are calculated using non-linear regression curve fit in the Dotmatics' Studies Software (Bishops Stortford, UK).

As usually defined, the EC50 is the concentration that produces a half-maximal response. Regarding `COc1ccc2c(c1)[nH]c1c(C)nccc12` [Harmine, reference compound], the EC50 in assay [1] (SH-SY5Y, read-out: EC50 in the Tau assay) was greater than 10000 nM.
Consider `Cn1cc(-c2ccc3cnc(NC(=O)c4ccc(OC5CCNCC5)cc4)nc3c2)nn1` [Compound 4573, N-(7-(1-Methyl-1H-1,2,3-triazol-4-yl)quinazolin-2-yl)-4-(piperidin-4-yloxy) benzamide], for which the 50% effective concentration (EC50) on DYRK1A kinase is 6 nM; at GSK3β kinase (setting [6]), 161 nM; in assay [1] (setting [7]), 10000 nM; in assay [2], 2700 nM; in assay [3] it was 3230 nM; in the assay with IL-6, greater than 10000 nM. Moreover, the half-maximal effective concentration (EC50) in assay [4] is greater than 10000 nM. Besides, the inhibition at 10 µM in the assay on IL-6 was determined as 9.6%; in assay [4], 9.3%.
Take `Cc1nnc(-c2cc3cc(NC(=O)C4CCN(C(=O)c5ccccc5)CC4)ncc3cn2)s1` [Compound 4346, 1-Benzoyl-N-(6-(5-methyl-1,3,4-thiadiazol-2-yl)-2,7-naphthyridin-3-yl) piperidine-4-carboxamide]: the 50% effective concentration (EC50) was 37 nM at DYRK1A kinase; 135 nM at GSK3β kinase (setting [6]); 1540 nM in assay [1] (setting [7]); greater than 10000 nM in assay [2]; greater than 10000 nM in assay [3]; greater than 10000 nM in the assay on IL-6. This compound also returned an EC50 in assay [4] greater than 10000 nM. Also, the inhibition at 10 µM amounted to 12.2% in assay [2], 3.8% in assay [3], 2.4% in the assay on IL-6 and 21.4% in assay [4].
On to `Cc1ncc(-c2ccc3cnc(NC(=O)Cn4ccnc4)cc3n2)o1` [Compound 589, 2-(1H-Imidazol-1-yl)-N-(2-(2-methyloxazol-5-yl)-1,6-naphthyridin-7-yl) acetamide], for which the concentration for a half-maximal effect (EC50) at DYRK1A kinase was 50 nM; at GSK3β kinase (setting [6]), 156 nM; in assay [1] (setting [7]), 10000 nM; in assay [2], greater than 10000 nM; in assay [3], greater than 10000 nM; in the assay on IL-6, greater than 10000 nM. In assay [4], this compound came in with an EC50 greater than 10000 nM. For the same compound, the inhibition at 10 µM was 22.9% in assay [2], 7.8% in assay [3], 5.9% with IL-6 and 41.6% in assay [4].
As to `Cc1ncc(C(=O)Nc2cc3cc(-c4cnc(C)n4C)ncc3cn2)s1` [Compound 4074, N-(6-(1,2-Dimethyl-1H-imidazol-5-yl)-2,7-naphthyridin-3-yl)-2-methylthiazole-5-carboxamide], the EC50 on DYRK1A kinase was 7 nM; at GSK3β kinase (setting [6]) it was 416 nM; in assay [5] (read-out: EC50), 300 nM; in assay [2], 2310 nM; in assay [3], 2690 nM; in the assay with IL-6, greater than 10000 nM. For the same compound, the EC50 in assay [4] worked out at 3190 nM. Further, the inhibition at 10 µM in the assay with IL-6 is 14%.
Turning to `CN1CCN(c2cc(C(=O)Nc3ncc4ccc(-c5ccc(N)nc5)cc4n3)ccn2)CC1` [Compound 1713, N-(7-(6-Aminopyridin-3-yl)quinazolin-2-yl)-2-(4-methylpiperazin-1-yl)isonicotinamide], the EC50 was 27 nM on DYRK1A kinase; greater than 10000 nM at GSK3β kinase; 1000 nM in assay [5]; 1560 nM in assay [2]; 1140 nM in assay [3]; greater than 10000 nM in the assay with IL-6. In assay [4], the EC50 turned out to be 5160 nM. The inhibition at 10 µM in the assay on IL-6 worked out at 5.7%.
On to `CN1CCC(Oc2cccc(C(=O)Nc3cc4cc(-c5cnco5)cnc4cn3)c2)CC1` [Compound 3311, 3-((1-Methylpiperidin-4-yl)oxy)-N-(3-(oxazol-5-yl)-1,7-naphthyridin-6-yl) benzamide], for which the EC50 is 7 nM on DYRK1A kinase; greater than 10000 nM on GSK3β kinase (setting [6]); 420 nM in assay [5] (read-out: EC50); greater than 10000 nM in assay [2]; greater than 10000 nM in assay [3]; greater than 10000 nM with IL-6. Moreover, it took 1440 nM to reach a half-maximal effect in assay [4] (EC50). Moreover, the values for the inhibition at 10 µM (in assay [2]; in assay [3]; in the assay on IL-6) were 5.4%, 4.9% and 5.8%, respectively.
